Test results: patent US20180116993A1, “MODULATORS OF FARNESOID X RECEPTOR AND METHODS FOR THE USE THEREOF” (XIAMEN UNIVERSITY, priority 2015, published 2018)
Marks after values point to notes of the source that are not given here.

Columns and labels:
[1] = Clearance of superoxide anion radical in vitro; details: method of CN 102813683 B, p<0.01
[2] = tested on: mouse embryonic fibroblasts (MEFs); experiment: GSH levels in mouse embryonic fibroblasts (MEFs); type: cell-based; details: 20 μM, 24 hours, vehicle 31 ± 6
Text: The reduced glutathione (GSH) is a natural antioxidant in cells and plays important function responding the oxidative stress. The GSH levels will decrease with age, infection, poisoning, exogenous toxins and oxidative stress. The Sestrin2 (Sesn2) gene encodes a conserved antioxidant protein that is induced on oxidative stress and protects cells against reactive oxygen species. SOD2 is an antioxidant enzyme. The antioxidants are defense system for organ to prevent damage by free radical. In this example, the mouse embryonic fibroblasts (MEFs) were treated with compounds for 24 hours, and the GSH levels were analyzed using GSH kit (Nanjing Jiancheng Engineering Institute, China). […] Correspondingly, the expression levels of the antioxidant genes such as SOD2 and SESN2 increased in compounds treated MEFs (Table 26 and Table 28).

[3] = tested on: db/db mice; experiment: Serum/blood metabolic parameters in high-fat diet fed db/db mice; type: in vivo, mouse; details: 50 mg/kg for 7 days
Text: (§1) KK-Ay mice (KK/Upj-Ay/J) are animal models with moderate obese and diabetes with insulin resistance. KK-Ay mice develop hyperglycemia, hyperinsulinemia, glucose intolerance and obesity as well as fat accumulation in liver by eight weeks of age. Pancreatic islets are hypertrophied and the β-cells are degranulated. db/db mice (BKS.Cg-Dockr+/+ Lepr^db/Jnju) are animal models of type II diabetes. They have the phenotype of insulin resistance. These model mice were used to detect the functions of our compounds on metabolic diseases.
8-10 weeks age mice were maintained as example 4, and fed with high-fat diet (Research Diets, D12492). Mice were i.p. injected with compounds once daily for 7, 10, 11 or 14 days as indicated in each table. After the last compounds injection, mice were fasted for 6 hours with free access to water, and then sacrificed. Part of each liver was fixed in 4% paraformaldehyde for H&E staining, and other liver tissues were stored in liquid nitrogen for enzyme activity measurement and gene expression analysis by RT-PCR. The serums were collected to measure metabolic parameters, including serum glucose, insulin, cholesterol, free fatty acid (FFA) and triglyceride levels. Serum glucose was analyzed using glucose oxidase method (Applygen, Beijing, China). The blood glucose in Table 11 was measured with Berenger blood glucose test strips (B/BRAUN, German) from blood by cutting mice tail after the 6th injection and following fast for 16 hours. Serum cholesterol and FFA were analyzed using Cholesterol Assay Kit and FFA Assay Kit (Bioassay Systems, USA; Nanjing Jiancheng Bioengineering Institute, China; FFA ELISA, R&D, USA), respectively. Serum triglyceride was analyzed using Triglyceride Assay Kit (Bioassay Systems, USA; WAKO Chemicals Inc., Japan; Applygen, Beijing, China). Liver triglyceride was analyzed using Tissue triglyceride assay kit (Applygen, Beijing, China). Serum insulin levels were measured by the Ultra Sensitive Mouse Insulin ELISA Kit (Crystal Chem. Inc., USA). RNA was isolated using Tissue RNA kit (Omega Bio-Tek, GA). The first strand cDNA were obtained by TAKARA reverse transcription kit. Real-time quantitative PCR were performed on a CFX96™ Real-Time PCR Detection System (Bio-Rad) using SYBR Premix Ex Taq™ (TAKARA). Relative mRNA expression levels were normalized to actin levels. […]

[4] = tested on: KK-Ay mice; experiment: Serum metabolic parameters in high-fat diet fed diabetic KK-Ay mice; type: in vivo, mouse; details: 10 mg/kg for 14 days, vehicle 253 ± 11
Text: as §1
8-10 weeks age mice were maintained as example 4, and fed with high-fat diet (Research Diets, D12492). Mice were i.p. injected with compounds once daily for 7, 10, 11 or 14 days as indicated in each table. After the last compounds injection, mice were fasted for 6 hours with free access to water, and then sacrificed. Part of each liver was fixed in 4% paraformaldehyde for H&E staining, and other liver tissues were stored in liquid nitrogen for enzyme activity measurement and gene expression analysis by RT-PCR. The serums were collected to measure metabolic parameters, including serum glucose, insulin, cholesterol, free fatty acid (FFA) and triglyceride levels. Serum glucose was analyzed using glucose oxidase method (Applygen, Beijing, China). The blood glucose in Table 11 was measured with Berenger blood glucose test strips (B/BRAUN, German) from blood by cutting mice tail after the 6th injection and following fast for 16 hours. Serum cholesterol and FFA were analyzed using Cholesterol Assay Kit and FFA Assay Kit (Bioassay Systems, USA; Nanjing Jiancheng Bioengineering Institute, China; FFA ELISA, R&D, USA), respectively. Serum triglyceride was analyzed using Triglyceride Assay Kit (Bioassay Systems, USA; WAKO Chemicals Inc., Japan; Applygen, Beijing, China). Liver triglyceride was analyzed using Tissue triglyceride assay kit (Applygen, Beijing, China). Serum insulin levels were measured by the Ultra Sensitive Mouse Insulin ELISA Kit (Crystal Chem. Inc., USA). RNA was isolated using Tissue RNA kit (Omega Bio-Tek, GA). The first strand cDNA were obtained by TAKARA reverse transcription kit. Real-time quantitative PCR were performed on a CFX96™ Real-Time PCR Detection System (Bio-Rad) using SYBR Premix Ex Taq™ (TAKARA). Relative mRNA expression levels were normalized to actin levels.

[5] = tested on: mice with APAP-induced liver injury; experiment: Acetaminophen (APAP)-induced liver injury in mouse; type: in vivo
Text: Methods: Acetaminophen (APAP)-induced liver injury in mouse is a commonly used model to study drugs protecting liver. Overdose of APAP causes liver injury by inducing the production of reactive oxygen species and reactive nitrogen species, and excessive consumption of reductive substances such as antioxidant glutathione (GSH), leading to the reduction of GSH in vivo, and the following upregulation of the activities of the aspartate aminotransferase (AST), the alanine aminotransferase (ALT) and the lactate dehydrogenase (LDH), which will result in liver inflammation and necrosis. In this example, the APAP-induced liver injury was used to detect the protection and repair functions of our compounds in liver injury.
One-year or 8-week age mice were maintained under environmentally controlled conditions with free access to standard chow diet and water. Animal experiments were conducted in the barrier facility of the Laboratory Animal Center, Xiamen University, approved by the Institutional Animal Use and Care Committee of Xiamen University, China.
Compounds were solved with DMSO and then prepared to work concentration with 40% HBC (2-hydroxypropyl-β-cyclodextrin) in which the final work concentrations of compounds are 5 mg/kg body weight, 10 mg/kg or 20 mg/kg in 100 μl injection volume and the concentration of DMSO is 10%. Compounds were intraperitoneal (i.p.) injected once daily for five days. For Feroline and Tschimganine, one-year age mice were used in the experiment. For other compounds, 8-week age mice were used. […] For Tschimganine, 20 mg/kg dose of compound was administered to mice. For other compounds, 5 mg/kg dose of compounds were administered to mice. Six hours after the fifth injection, 500 mg/kg body weight of APAP solved in PBS was i.p. injected to the mice. 24 hours later, mice were sacrificed. Part of each liver was fixed in 4% paraformaldehyde, and the liver histology characterization was analyzed by haematoxylin and eosin (H&E) staining with paraffin-embedded sections by standard procedures. Other liver tissues were collected for detecting the GSH levels, and the mRNA expression of genes involved in liver repairing, such as GPX1 and UGT1a1, by RT-PCR. The serums were collected to measure enzymes activities including AST, ALT and LDH. For the synthetic derivatives, ALT and GSH were selected as indicating markers for the function of these compounds.

Hedragonic acid
clearance rate to superoxide anion radical [1]: 58%±6.4% | GSH (μM) [2]: 72 ± 9^a μM | Serum Insulin (ng/ml) ([3]; vehicle 12 ± 3): 4.65 ± 0.2^b ng/ml | Serum Glucose (mg/dl) ([3]; vehicle 521 ± 54): 334 ± 50^a mg/dl | Serum Glucose (mg/dl) [4]: 161 ± 21^b mg/dl | Liver morphology by H&E staining (FIG. 1) ([5]; 10 mg/kg (Tschimganine 20 mg/kg) i.p. five days, then APAP, compared to severe liver injury in control group): almost normal liver morphology | expression levels of GPX1 and UGT1α1 in liver ([5]; mRNA by RT-PCR, vs vehicle control group, Table 5 (not given)): significantly upregulated | activities of serum AST, ALT and LDH ([5]; vs vehicle control group, Table 5 (not given)): dramatically lower
